According to patent publication US8883798B2, “Pyrimidine compounds inhibiting the formation of nitric oxide and prostaglandin E2, method of production thereof and use thereof” (Ustav Organicke Chemie a Biochemie Akademie Ved CR, V.V.I., priority 2011, dated 2014):

Key:
[1] = test system: peritoneal cells of mice; assay: Cell viability of mouse peritoneal cells (WST-1 kit); format: cell-based; settings: Table 3B, substance 50 μmol·l^−1, 24 h
Procedure, shortened: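 C57BL/6 mouse peritoneal cells (1×10^6/mL) cultured 24 h with compounds at 50 μmol·l^−1. Viability read with WST-1 tetrazolium salt and expressed as percent of untreated control cells (100%).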

[2] = test system: production of nitric oxide (NO); assay: Production of nitric oxide (NO) in cultures of mouse peritoneal cells stimulated with IFN-γ plus LPS (Griess reagent); format: cell-based, mice; settings: Table 3B; substance 50 μmol·l^−1; IFN-g plus LPS; 24 h
Procedure, shortened: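 C57BL/6 mouse peritoneal cells (2×10^6/mL) stimulated with IFN-γ (5000 pg/mL) plus LPS (100 pg/mL), compounds at 50 μmol·l^−1. Nitrite measured by Griess reagent after 24 h, expressed as % of stimulated control (set 100%); IC50 is concentration reducing NO by 50%.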

[3] = test system: production of prostaglandin E2 (PGE2); assay: Production of prostaglandin E2 (PGE2) in cultures of mouse peritoneal cells stimulated with LPS (ELISA kit); format: cell-based, mice; settings: Table 3B, 6 h
Procedure, shortened: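 C57BL/6 mouse peritoneal cells (3×10^6/mL) stimulated with LPS (10 ng/mL). PGE2 measured by ELISA.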

Row | Structure (SMILES) | melting point | Cell viabilities in % of the controls [1] | Production of nitric oxide in % of the controls [2] | Production of prostaglandins IC50 (μmol · 1^−1) average value and range of values [3]
1 | Cc1c(Cl)nc(/N=C/N(C)C)nc1Cl [Substance 13, 4,6-dichloro-5-methyl-2-{[(dimethylamino)methylene]amino}pyrimidine] | 84 to 86 °C | – | – | –
2 | CCc1c(Cl)nc(/N=C/N(C)C)nc1Cl [Substance 14, 4,6-dichloro-5-ethyl-2-{[(dimethylamino)methylene]amino}pyrimidine] | 78 to 80 °C | – | – | –
3 | CCCc1c(Cl)nc(/N=C/N(C)C)nc1Cl [Substance 15, 4,6-dichloro-2-{[(dimethylamino)methylene]amino}-5-propylpyrimidine] | 76 to 78 °C | – | – | –
4 | CC(C)c1c(Cl)nc(/N=C/N(C)C)nc1Cl [Substance 16, 4,6-dichloro-5-isopropyl-2-{[(dimethylamino)methylene]amino}pyrimidine] | 77 to 78 °C | – | – | –
5 | C=CCc1c(Cl)nc(/N=C/N(C)C)nc1Cl [Substance 17, 5-allyl-4,6-dichloro-2-{[(dimethylamino)methylene]amino}pyrimidine] | 80 to 81 °C | – | – | –
6 | C#CCc1c(Cl)nc(/N=C/N(C)C)nc1Cl [Substance 18, 4,6-dichloro-2-{[(dimethylamino)methylene]amino}-5-(prop-2-yn-1-yl)pyrimidine] | 82 to 83 °C | – | – | –
7 | CCCCc1c(Cl)nc(/N=C/N(C)C)nc1Cl [Substance 19, 5-butyl-4,6-dichloro-2-{[(dimethylamino)methylene]amino}pyrimidine] | 65 to 67 °C | – | – | –
8 | CCC(C)c1c(Cl)nc(/N=C/N(C)C)nc1Cl (centres unmarked) [Substance 21, 5-sec-butyl-4,6-dichloro-2-{[(dimethylamino)methylene]amino}pyrimidine] | 67 to 68 °C | – | – | –
9 | CN(C)/C=N/c1nc(Cl)c(Cc2ccccc2)c(Cl)n1 [Substance 23, 5-benzyl-4,6-dichloro-2-{[(dimethylamino)methylene]amino}pyrimidine] | 63 to 65 °C | – | – | –
10 | CN(C)/C=N/c1nc(Cl)c(-c2ccccc2)c(Cl)n1 [Substance 24, 4,6-dichloro-2-{[(dimethylamino)methylene]amino}-5-phenylpyrimidine] | 67 to 68 °C | – | – | –
11 | Cc1c(Cl)nc(N)nc1Cl [Substance 25, 2-amino-4,6-dichloro-5-methylpyrimidine] | 189 to 190 °C | – | – | –
12 | CCCCc1c(Cl)nc(N)nc1-c1cc2ccccc2o1 [Substance 126] | – | 102.56 ± 5.92; n = 4 % of the controls | 78.18 ± 9.03; n = 4 % of the controls | 87.25 ± 13.99; n = 2 μmol · 1^−1
13 | CCCCc1c(-c2ccccn2)nc(N)nc1-c1cc2ccccc2s1 [Substance 127] | – | 130.66 ± 2.87; n = 8 % of the controls | 40.88 ± 6.83; n = 4 % of the controls | 38.26 ± 14.52; n = 8 μmol · 1^−1
14 | CCCCc1c(-c2cccnc2)nc(N)nc1-c1cc2ccccc2s1 [Substance 128] | – | 79.62 ± 4.12; n = 8 % of the controls | 64.91 ± 6.60 n = 4 % of the controls | 31.10 ± 10.43; n = 4 μmol · 1^−1
15 | CCCCc1c(-c2ccncc2)nc(N)nc1-c1cc2ccccc2s1 [Substance 129] | – | 85.12 ± 0.76; n = 8 % of the controls | 63.94 ± 1.84 n = 4 % of the controls | 65.97 ± 25.34; n = 2 μmol · 1^−1
16 | CCCCc1c(-c2cccs2)nc(N)nc1-c1cc2ccccc2s1 [Substance 130] | – | 130.68 ± 8.17; n = 12 % of the controls | 43.43 ± 7.18; n = 10 % of the controls | 56.31 ± 19.61; n = 8 μmol · 1^−1
17 | CCCCc1c(-c2ccco2)nc(N)nc1-c1cc2ccccc2s1 [Substance 131] | – | 98.88 ± 1.65; n = 8 % of the controls | 49.76 ± 4.85; n = 4 % of the controls | 83.56 ± 5.83; n = 4 μmol · 1^−1
18 | CCCCc1c(Cl)nc(N)nc1-c1cc2ccccc2s1 [Substance 132] | – | 84.08 ± 4.71; n = 8 % of the controls | 49.61 ± 6.36; n = 4 % of the controls | 20.76 ± 9.35; n = 4 μmol · 1^−1

Row | Structure (SMILES) | melting point | Cell viabilities in % of the controls [1] | Production of nitric oxide in % of the controls [2] | Production of prostaglandins IC50 (μmol · 1^−1) average value and range of values [3]
19 | CCCCc1c(-c2ccccc2)nc(N)nc1-c1cccc2ccccc12 [Substance 133] | – | 110.75 ± 3.69; n = 4 % of the controls | 49.60 ± 9.26; n = 4 % of the controls | 61.74 ± 17.48; n = 2 μmol · 1^−1
20 | CCCCc1c(-c2ccc(OC)cc2)nc(N)nc1-c1cccc2ccccc12 [Substance 134] | – | 93.40 ± 5.59; n = 12 % of the controls | 33.09 ± 7.25; n = 8 % of the controls | 27.85 ± 10.82; n = 8 μmol · 1^−1
21 | CCCCc1c(-c2ccccn2)nc(N)nc1-c1cccc2ccccc12 [Substance 135] | – | 64.97 ± 12.85; n = 8 % of the controls | 18.45 ± 5.66; n = 6 % of the controls | 28.69 ± 0.00; n = 2 μmol · 1^−1
22 | CCCCc1c(-c2cccnc2)nc(N)nc1-c1cccc2ccccc12 [Substance 136] | – | 111.00 ± 0.97; n = 4 % of the controls | 70.28 ± 3.71; n = 4 % of the controls | 72.55 ± 19.06; n = 2 μmol · 1^−1
23 | CCCCc1c(-c2ccncc2)nc(N)nc1-c1cccc2ccccc12 [Substance 137] | – | 85.07 ± 1.02; n = 4 % of the controls | 58.04 ± 6.68; n = 4 % of the controls | 28.00 ± 9.43; n = 2 μmol · 1^−1
24 | CCCCc1c(-c2ccco2)nc(N)nc1-c1cccc2ccccc12 [Substance 138] | – | 93.61 ± 5.46; n = 4 % of the controls | 42.92 ± 3.77; n = 4 % of the controls | 43.57 ± 4.53; n = 2 μmol · 1^−1
25 | CCCCc1c(-c2ccoc2)nc(N)nc1-c1cccc2ccccc12 [Substance 139] | – | 104.41 ± 10.83; n = 8 % of the controls | 70.38 ± 4.95; n = 6 % of the controls | 18.35 ± 3.26; n = 4 μmol · 1^−1
26 | CCCCc1c(-c2ccsc2)nc(N)nc1-c1cccc2ccccc12 [Substance 140] | – | 94.34 ± 2.62; n = 4 % of the controls | 30.16 ± 2.96; n = 4 % of the controls | 40.66 ± 6.87; n = 2 μmol · 1^−1
27 | CCCCc1c(-c2cccc3ccccc23)nc(N)nc1-c1cccc2ccccc12 [Substance 141] | – | 107.73 ± 5.36; n = 8 % of the controls | 57.66 ± 6.53; n = 6 % of the controls | 34.2 ± 8.01; n = 4 μmol · 1^−1
28 | CCCCc1c(Cl)nc(N)nc1-c1cccc2ccccc12 [Substance 142] | – | 114.07 ± 8.00; n = 8 % of the controls | 43.99 ± 6.06; n = 6 % of the controls | 9.14 ± 2.71; n = 4 μmol · 1^−1
29 | CCCCc1c(Cl)nc(NC2CC2)nc1Cl [Substance 143] | – | 104.31 ± 8.28; n = 8 % of the controls | 78.33 ± 13.82; n = 6 % of the controls | 85.94 ± 12.69; n = 4 μmol · 1^−1
30 | CCCCc1c(Cl)nc(NCc2ccco2)nc1Cl [Substance 144] | – | 150.27 ± 4.96; n = 8 % of the controls | 83.33 ± 11.72; n = 6 % of the controls | 0.20 ± 0.33; n = 4 μmol · 1^−1
31 | CCCCc1c(Cl)nc(NCc2ccccc2)nc1Cl [Substance 145] | – | 147.31 ± 4.88; n = 8 % of the controls | 93.01 ± 9.25; n = 6 % of the controls | 0.28 ± 0.23; n = 4 μmol · 1^−1
32 | CCCCc1c(Cl)nc(NN)nc1Cl.Cl [Substance 146] | – | 103.28 ± 4.62; n = 8 % of the controls | 86.28 ± 9.01; n = 6 % of the controls | 1.61 ± 0.27; n = 4 μmol · 1^−1
33 | CCCCc1c(Cl)nc(NC(C)=O)nc1Cl [Substance 147] | – | 113.28 ± 8.99; n = 8 % of the controls | 15.32 ± 2.33; n = 6 % of the controls | 80.60 ± 4.63; n = 2 μmol · 1^−1
34 | CCCCc1c(Cl)nc(Sc2ccccc2)nc1Cl [Substance 148] | – | 90.49 ± 4.62; n = 12 % of the controls | 61.85 ± 10.25; =10 % of the controls | 77.50 ± 16.19; n = 4 μmol · 1^−1
35 | CCCCc1c(Cl)nc(S)nc1Cl [Substance 149] | – | 99.14 ± 6.73; n = 8 % of the controls | 24.12 ± 11.22; n = 6 % of the controls | 26.35 ± 10.89; n = 4 μmol · 1^−1
